Measurements reported in patent publication US20040148991A1, “Method and apparatus for dissolving urea” (priority 2003, published 2004).

Assay: Urea dissolution time in water at 50/50 wt/wt urea/water concentration
Format: physicochemical
Conditions: for dissolution time faster than control test: versus control 12 minutes
Procedure: The next step of the method of the present invention comprises mixing the urea prills and the water so as to form a mixture. After the mixture is formed, the mixture of urea and water is then allowed to stand for an amount of time sufficient to allow the temperature of the mixture to reach a predetermined temperature. In a preferred embodiment, the predetermined temperature is between about 19° C. and 24° C., and more preferably, about 23° C. The amount of time required for the temperature of the mixture to reach the predetermined temperature depends upon the amount of mixture in mixing container 12. During this time period in which the mixture is allowed to stand, the temperature of the mixture is monitored with temperature sensor 20. When the temperature of the mixture reaches the predetermined temperature, mixing of the urea/water mixture is resumed and continues until the urea completely dissolves in the water. The time for urea dissolution is measured from the moment the mixing resumes to the point in time when the urea becomes completely dissolved in the water. The solution is outputted from mixing container 12 via outlet 14.
A series of tests were conducted in order to determine the urea dissolution time when various amounts of water were initially added to the urea and wherein additional amounts of water were subsequently added to attain the 50/50 wt/wt urea/water concentration. A control test was first conducted in order to obtain reference data. About 40 grams of urea prills were mixed with an equal amount of water, i.e. 40 grams (or milliliters). The mixture was not allowed to stand for any amount of time. Thus, the mixing step began as soon as 40 grams of urea and 40 grams of water were added to mixing container 12. The time for the urea to completely dissolve was about twelve (12) minutes and is indicated by numeral 100 in the curve of FIG. 2.
In the first test, about 40 grams of urea and 10 grams of water were deposited into mixing container 12. The mixture was then mixed or stirred, and allowed to stand until the temperature of the mixture reached about room temperature or about 23° C. Next, an amount of water necessary to achieve a urea/water concentration of 50/50 wt/wt was added to the mixture. Since the initial amount of water was 10 grams , 30 grams of water were added to the mixture to achieve the desired 50/50 wt/wt concentration. The urea and water were mixed again. The urea completely dissolved in eight (8) minutes after the 50/50 wt/wt urea/water concentration was achieved. This is indicated by numeral 102 on the curve in FIG. 2. The dissolution time was about 33% faster than the control test dissolution time of twelve (12) minutes.
In the next test, about 40 grams of urea and 15 grams of water were deposited into mixing container 12. The mixture was then mixed or stirred, and allowed to stand until the temperature of the mixture reached about room temperature or about 23° C. Next, an amount of water necessary to achieve a 50/50 wt/wt urea/water concentration was added to the mixture. Since the initial amount of water was 15 grams, 25 grams of water were added to the mixture to achieve the desired 50/50 wt/wt urea/water concentration. The urea and water were mixed again. The urea completely dissolved in seven (7) minutes after the 50/50 wt/wt urea/water concentration was achieved. This is indicated by numeral 104 on the curve in FIG. 2. The dissolution time was about 42% faster than the control test dissolution time of twelve (12) minutes.
In the next test, about 40 grams of urea and 20 grams of water were deposited into mixing container 12. The mixture was then mixed or stirred, and allowed to stand until the temperature of the mixture reached about room temperature or about 23° C. Next, an amount of water necessary to achieve a urea/water concentration of 50/50 wt/wt was added to the mixture. […]

NC(N)=O [urea]
dissolution time faster than control test (Test 1: 10 g water initially): about 33%
time for the urea to completely dissolve (Test 1: 40 g urea + 10 g water initially, stand until about 23° C., then 30 g water added to 50/50 wt/wt): 8 min
dissolution time faster than control test (Test 2: 15 g water initially): about 42%
time for the urea to completely dissolve (Test 2: 40 g urea + 15 g water initially, stand until about 23° C., then 25 g water added to 50/50 wt/wt): 7 min
dissolution time faster than control test (Test 3: 20 g water initially): about 58%
time for the urea to completely dissolve (Test 3: 40 g urea + 20 g water initially, stand until about 23° C., then 20 g water added to 50/50 wt/wt): 5 min
dissolution time faster than control test (Test 4: 25 g water initially): about 67%
time for the urea to completely dissolve (Test 4: 40 g urea + 25 g water initially, stand until about 23° C., then 15 g water added to 50/50 wt/wt): 4 min
time for the urea to completely dissolve (Test 5: 40 g urea + 40 g water, mixed, stand until about 23° C., mixed again): 3 min
dissolution time faster than control test (Test 5: 40 g water initially): about 75%
time for the urea to completely dissolve (control test: 40 g urea prills + 40 g water, mixture not allowed to stand): ~12 min
